{"source": "patent US20240050454A1", "about": "“Compositions and Methods For Treating Neurological Conditions” (WeSana Health Inc., priority 2020, published 2024)", "key": {"mice (BALB/c) [1]": {"system": "mice (BALB/c)", "assay": "Tail suspension test (TST), psilocybin loading dose then psilocybin+CBD+6 MB maintenance"}, "mice (BALB/c) [2]": {"system": "mice (BALB/c)", "assay": "Elevated plus maze (EPM), anxiety-like behavior"}, "[3]": {"details": "psilocybin: loading dose 5 mg/kg alone, combination: given after the psilocybin loading dose"}}, "note": "Entries after “also recorded” stand apart in the source; their conditions may differ.", "data": [{"substance": "[3-(2-dimethylaminoethyl)-1H-indol-4-yl] dihydrogen phosphate [psilocybin]", "values": [{"measurement": "immobile posture time in TST", "setting": "mice (BALB/c) [1]; Day 15, psilocybin loading dose 5 mg/kg on Day 1, FIG. 4A", "result": "decreased"}, {"measurement": "depression / depressive symptoms in mouse models", "setting": "mice (BALB/c) [1]; [3]", "result": "decreased"}, {"measurement": "time spent immobile in TST", "setting": "mice (BALB/c) [1]; three weeks after 5 mg/kg loading dose of psilocybin (Day 22), loading dose only", "result": "significant decrease"}, {"measurement": "percentage of time spent in open space (open arms of the EPM)", "setting": "mice (BALB/c) [2]; Day 14, two weeks after psilocybin loading dose 5 mg/kg, vs vehicle control, FIG. 2, 5 mg/kg", "result": "significantly increased; also recorded: more time"}, {"measurement": "anxiety in mouse models", "setting": "mice (BALB/c) [2]; [3]", "result": "decreased"}]}]}
